Active and inactive are the calls of the source.
Key:
[1] = molecular target: T1, Mannose-6-phosphate isomerase (Homo sapiens, UniProt P34949); experiment: phosphomannose isomerase inhibition – biochemical, fluorescence intensity, confirmation (AID 1535)
T1 sequence (P34949 whole entry): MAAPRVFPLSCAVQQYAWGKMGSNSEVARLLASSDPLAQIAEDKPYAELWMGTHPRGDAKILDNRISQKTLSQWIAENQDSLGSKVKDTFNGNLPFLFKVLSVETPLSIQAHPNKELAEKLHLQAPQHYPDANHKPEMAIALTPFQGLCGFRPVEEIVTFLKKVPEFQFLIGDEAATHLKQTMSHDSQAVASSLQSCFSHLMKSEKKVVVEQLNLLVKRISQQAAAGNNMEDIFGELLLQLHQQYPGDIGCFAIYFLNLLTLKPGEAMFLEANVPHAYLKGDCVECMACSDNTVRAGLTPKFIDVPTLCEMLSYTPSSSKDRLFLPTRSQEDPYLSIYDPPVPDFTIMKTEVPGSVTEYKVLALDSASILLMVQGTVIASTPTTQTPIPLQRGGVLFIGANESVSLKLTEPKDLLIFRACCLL

Phosphomannomutase 2 = Phosphomannomutase 2 (Homo sapiens, UniProt O15305); experiment: Counter screen SAR assay for PMM2 inhibitors via a fluorescence intensity assay. [Related pubchem assays (depositor defined):AID1545, AID1574]
Phosphomannomutase 2, sequence (O15305 whole entry): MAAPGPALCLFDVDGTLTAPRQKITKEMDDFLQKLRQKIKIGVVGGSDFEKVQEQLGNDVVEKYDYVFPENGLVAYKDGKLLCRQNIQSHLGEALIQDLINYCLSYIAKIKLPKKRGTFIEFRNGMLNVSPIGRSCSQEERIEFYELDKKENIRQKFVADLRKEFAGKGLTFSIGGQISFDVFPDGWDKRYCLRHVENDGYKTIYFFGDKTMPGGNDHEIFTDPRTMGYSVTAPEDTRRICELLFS

[2] = molecular target: DNA dC->dU-editing enzyme APOBEC-3G (Homo sapiens, UniProt Q9HC16); experiment: Dose Response confirmation of small molecule APOBEC3G DNA Deaminase Inhibitors via a fluorescence-based single-stranded DNA deaminase assay. [Related pubchem assays (depositor defined):AID493012, AID493028]; assay type: functional
DNA dC->dU-editing enzyme APOBEC-3G, sequence (Q9HC16 whole entry): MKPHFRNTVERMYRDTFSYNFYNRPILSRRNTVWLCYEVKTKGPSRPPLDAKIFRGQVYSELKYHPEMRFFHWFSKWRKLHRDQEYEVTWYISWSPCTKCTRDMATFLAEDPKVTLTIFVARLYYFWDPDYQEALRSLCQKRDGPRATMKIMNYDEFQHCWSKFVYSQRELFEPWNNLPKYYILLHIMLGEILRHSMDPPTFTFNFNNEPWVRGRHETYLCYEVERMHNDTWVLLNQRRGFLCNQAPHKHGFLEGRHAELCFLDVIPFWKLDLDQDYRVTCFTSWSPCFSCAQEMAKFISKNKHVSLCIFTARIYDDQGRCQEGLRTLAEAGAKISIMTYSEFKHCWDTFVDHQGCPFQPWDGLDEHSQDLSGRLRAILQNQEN

[3] = molecular target: T2, Rac GTPase-activating protein 1 (Homo sapiens, UniProt Q9H0H5); experiment: blockers of MgcRacGAP-driven Rac1 GTP hydrolysis – biochemical, ADP Hunter fluorescence, primary and confirmatory, confirmation (AID 624330); assay type: functional
T2 sequence (Q9H0H5 whole entry): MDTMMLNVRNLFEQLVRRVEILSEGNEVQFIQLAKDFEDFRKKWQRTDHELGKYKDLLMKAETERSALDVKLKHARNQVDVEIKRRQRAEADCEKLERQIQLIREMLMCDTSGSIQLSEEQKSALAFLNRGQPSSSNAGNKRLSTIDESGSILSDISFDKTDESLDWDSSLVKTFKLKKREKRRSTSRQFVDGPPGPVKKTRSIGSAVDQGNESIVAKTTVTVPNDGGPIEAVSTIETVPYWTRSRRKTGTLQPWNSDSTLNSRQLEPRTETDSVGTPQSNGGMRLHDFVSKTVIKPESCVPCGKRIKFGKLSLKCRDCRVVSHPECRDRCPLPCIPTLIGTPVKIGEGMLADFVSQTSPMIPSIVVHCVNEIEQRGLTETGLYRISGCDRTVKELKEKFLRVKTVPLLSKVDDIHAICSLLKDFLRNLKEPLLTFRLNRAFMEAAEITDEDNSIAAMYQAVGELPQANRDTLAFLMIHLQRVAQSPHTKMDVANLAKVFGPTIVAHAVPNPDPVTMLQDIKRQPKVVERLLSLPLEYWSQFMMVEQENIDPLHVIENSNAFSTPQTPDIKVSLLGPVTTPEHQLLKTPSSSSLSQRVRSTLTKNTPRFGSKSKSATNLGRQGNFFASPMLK

[4] = THP-1 cell cytotoxicity, dose response, cytotoxicity control for non-replicating M. tuberculosis project (AID 489025); assay type: functional
[5] = HepG2 cell cytotoxicity, dose response, cytotoxicity control for non-replicating M. tuberculosis project (AID 489018); assay type: functional; details: Mycobacterium tuberculosis
[6] = Vero E6 cell cytotoxicity, dose response, cytotoxicity control for non-replicating M. tuberculosis project, secondary assay (AID 492998); assay type: functional, VeroE6; details: Vero C1008
cells = assay type: functional
HEK293 = experiment: EBV LMP1 TES2 canonical NF-kB signalling blockers – cell-based, HEK293, luciferase, cherry-pick, dose response (AID 588343); assay type: functional; details: Homo sapiens
H9c2 = experiment: cells; assay type: functional, cell-based; details: Rattus norvegicus, H9c2, Myocardium;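 also: confirmatory concentration-response retest of ultra-high-throughput screening hits for modulation of myocardial damage; cell death induced by hydrogen peroxide oxidative stress; compound pretreatment for 60 min then peroxide exposure for 2 h; potency is for protecting the cells against peroxide damage rather than for killing them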
[7] = molecular target: G-protein coupled receptor 55 (Homo sapiens, UniProt Q9Y2T6); experiment: inhibition of LPI-stimulated GPR55 beta-arrestin translocation – imaging, U2OS, beta-arrestin-GFP, LPI agonist, primary screen (AID 2013); assay type: functional;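 also: antagonist potency measured as reduced agonist-driven arrestin aggregation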
G-protein coupled receptor 55, sequence (Q9Y2T6 whole entry): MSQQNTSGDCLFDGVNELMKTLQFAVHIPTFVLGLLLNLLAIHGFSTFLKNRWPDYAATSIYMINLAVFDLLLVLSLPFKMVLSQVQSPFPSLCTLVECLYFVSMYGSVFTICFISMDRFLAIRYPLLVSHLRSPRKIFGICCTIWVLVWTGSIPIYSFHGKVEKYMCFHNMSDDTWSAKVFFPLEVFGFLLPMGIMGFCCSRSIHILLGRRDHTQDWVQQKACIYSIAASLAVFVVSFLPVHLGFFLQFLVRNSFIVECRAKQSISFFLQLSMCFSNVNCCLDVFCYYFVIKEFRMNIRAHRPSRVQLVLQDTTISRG

[8] = molecular target: T3, E3 ubiquitin-protein ligase XIAP (Homo sapiens, UniProt P98170); experiment: Counter Screen using XIAP-Bir3 for Chemical Antagonists of Bir1/2 domains of IAP-family anti-apoptotic proteins. [Related pubchem assays (depositor defined):AID1018, AID1449, AID1514, AID1638, AID1749, AID1750, AID488957, AID488963]
T3 sequence (P98170 whole entry): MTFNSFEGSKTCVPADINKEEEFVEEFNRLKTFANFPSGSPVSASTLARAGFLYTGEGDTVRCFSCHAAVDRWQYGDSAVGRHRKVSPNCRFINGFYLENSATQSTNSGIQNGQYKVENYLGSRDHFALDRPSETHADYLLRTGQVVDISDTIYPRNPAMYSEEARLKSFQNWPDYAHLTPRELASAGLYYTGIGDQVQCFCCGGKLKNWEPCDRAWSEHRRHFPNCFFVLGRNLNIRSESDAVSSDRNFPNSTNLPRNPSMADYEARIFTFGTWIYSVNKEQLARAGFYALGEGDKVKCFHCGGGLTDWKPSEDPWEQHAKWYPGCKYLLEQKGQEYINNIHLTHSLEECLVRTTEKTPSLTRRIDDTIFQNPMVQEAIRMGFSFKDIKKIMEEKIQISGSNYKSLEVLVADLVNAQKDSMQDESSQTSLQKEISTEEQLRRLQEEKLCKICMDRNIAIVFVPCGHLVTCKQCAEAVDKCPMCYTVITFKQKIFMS

[9] = molecular target: T3, E3 ubiquitin-protein ligase XIAP; experiment: small molecules displacing peptide from XIAP – biochemical, IAP family, fluorescence polarization (AID 1018); assay type: functional
[10] = viability of PTEN-deleted HCT116 cells – cell-based, HCT116 PTEN knockout, dose response (AID 1047); assay type: functional;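 also: HCT116 colon tumor cells with PTEN knocked out; cells exposed to compound for 60 hours before readout; potency for loss of cell viability measured by luminescence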
[11] = viability of HCT116 lacking mutant beta-catenin – cell-based, human colon tumor, dose response (AID 1045); assay type: functional;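 also: HCT116 colon tumor cells with beta catenin knocked out; cells exposed to compound for 60 hours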
[12] = molecular target: Induced myeloid leukemia cell differentiation protein Mcl-1 (Homo sapiens, UniProt Q07820); assay type: functional
Induced myeloid leukemia cell differentiation protein Mcl-1, sequence (Q07820 whole entry): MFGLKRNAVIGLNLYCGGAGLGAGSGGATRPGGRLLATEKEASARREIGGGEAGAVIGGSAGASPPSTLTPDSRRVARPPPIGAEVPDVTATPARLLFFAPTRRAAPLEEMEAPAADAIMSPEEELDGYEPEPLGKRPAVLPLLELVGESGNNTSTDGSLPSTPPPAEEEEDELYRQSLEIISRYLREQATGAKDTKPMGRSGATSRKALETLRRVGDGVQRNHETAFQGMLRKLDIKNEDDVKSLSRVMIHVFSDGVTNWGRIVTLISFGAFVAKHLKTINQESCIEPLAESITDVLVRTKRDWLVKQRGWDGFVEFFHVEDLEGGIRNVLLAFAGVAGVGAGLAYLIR

CAAX prenyl protease 1 = CAAX prenyl protease 1 (Saccharomyces cerevisiae S288c, UniProt P47154); experiment: yeast CAAX protease Ste24 inhibition – biochemical, S. cerevisiae, plate reader, cherry-pick, dose response (AID 488815)
CAAX prenyl protease 1, sequence (P47154 whole entry): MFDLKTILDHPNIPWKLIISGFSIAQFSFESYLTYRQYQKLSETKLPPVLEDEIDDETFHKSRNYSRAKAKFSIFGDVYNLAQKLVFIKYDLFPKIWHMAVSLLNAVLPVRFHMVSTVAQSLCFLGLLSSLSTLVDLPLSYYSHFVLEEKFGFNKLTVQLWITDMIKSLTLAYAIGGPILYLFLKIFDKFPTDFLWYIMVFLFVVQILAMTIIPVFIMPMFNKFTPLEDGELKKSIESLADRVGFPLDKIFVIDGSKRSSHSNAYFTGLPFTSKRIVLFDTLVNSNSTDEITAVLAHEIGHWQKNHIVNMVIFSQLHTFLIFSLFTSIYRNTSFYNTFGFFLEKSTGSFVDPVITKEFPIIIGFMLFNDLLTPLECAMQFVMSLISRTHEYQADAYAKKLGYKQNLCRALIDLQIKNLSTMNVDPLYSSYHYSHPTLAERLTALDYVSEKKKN

[13] = Trypanosoma cruzi growth suppression in host cells – NIH3T3 host cells, beta-gal luminescence, confirmation (AID 2044); assay type: functional, cell-based;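 also: intracellular parasites grown in NIH/3T3 mouse fibroblasts as host cells; luminescent beta-galactosidase reporter signal from transgenic T. cruzi replicating inside host cells; inhibitors lower the luminescence signal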
[14] = NIH3T3 cell viability loss – ATP luminescence, mouse fibroblasts, counter-screen, dose response (AID 2010); assay type: functional, cell-based;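 also: cells exposed to compound for about 90 hours before reading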
Troponin, cardiac muscle = Troponin, cardiac muscle (Homo sapiens, UniProt P19429+P45379+P63316); experiment: Fluorescence-based biochemical high throughput dose response assay for activators of the calcium sensitivity of cardiac Regulated Thin Filaments (RTF). [Related pubchem assays (depositor defined):AID493008, AID493018, AID504382, AID504383]; assay type: protein-complex assay
Large T antigen = Large T antigen (Simian virus 40, UniProt P03070); assay type: functional, Betapolyomavirus macacae;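 also: Confirmatory-stage PubChem screen for compounds that inhibit SV40 T antigen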
[15] = molecular target: FAD-linked sulfhydryl oxidase ALR (Homo sapiens, UniProt P55789); experiment: ALR-catalysed DTT oxidation blockers – biochemical, H2O2 detection, luminescence, cherry-pick, dose response (AID 493248)
FAD-linked sulfhydryl oxidase ALR, sequence (P55789 whole entry): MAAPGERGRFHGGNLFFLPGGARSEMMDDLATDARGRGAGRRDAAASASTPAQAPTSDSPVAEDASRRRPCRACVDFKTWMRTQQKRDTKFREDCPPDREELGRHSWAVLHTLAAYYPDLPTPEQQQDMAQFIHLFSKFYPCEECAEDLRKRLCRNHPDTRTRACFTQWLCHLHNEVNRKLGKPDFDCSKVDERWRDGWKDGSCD

[16] = molecular target: T4, Polyadenylate-binding protein 1 (Homo sapiens, UniProt P11940); experiment: MLLE binding blockers, Cy5 peptide tracer – biochemical, fluorescence polarization, Cy5-PAM2 peptide, secondary, miRNA deadenylation inhibitor project, dose response (AID 602260); assay type: functional; details: read-out: IC50_Mean
T4 sequence (P11940 whole entry, the tested form may be a part): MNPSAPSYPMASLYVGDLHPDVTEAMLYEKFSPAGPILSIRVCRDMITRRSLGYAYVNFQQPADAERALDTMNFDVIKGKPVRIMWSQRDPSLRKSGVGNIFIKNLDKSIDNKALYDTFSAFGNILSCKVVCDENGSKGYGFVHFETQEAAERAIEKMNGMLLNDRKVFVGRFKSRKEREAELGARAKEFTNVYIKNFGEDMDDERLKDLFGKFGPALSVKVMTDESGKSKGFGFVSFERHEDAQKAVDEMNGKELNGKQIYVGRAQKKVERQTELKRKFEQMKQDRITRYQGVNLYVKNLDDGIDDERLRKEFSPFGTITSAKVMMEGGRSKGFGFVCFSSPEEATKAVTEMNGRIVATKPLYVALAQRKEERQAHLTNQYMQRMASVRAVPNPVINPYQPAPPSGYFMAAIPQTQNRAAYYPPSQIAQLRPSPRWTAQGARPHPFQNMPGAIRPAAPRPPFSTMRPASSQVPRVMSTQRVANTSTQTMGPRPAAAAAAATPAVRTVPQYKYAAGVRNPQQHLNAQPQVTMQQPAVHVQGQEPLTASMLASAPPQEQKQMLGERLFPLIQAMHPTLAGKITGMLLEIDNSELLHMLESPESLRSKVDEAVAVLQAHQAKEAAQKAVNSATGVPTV

[17] = molecular target: T4, Polyadenylate-binding protein 1; experiment: MLLE domain peptide-binding blockers, IC50 – biochemical, fluorescence polarization, FITC-PAM2 peptide, dose response (AID 602259); assay type: functional; details: read-out: IC50_Mean
Hexokinase HKDC1 = molecular target: T5, Hexokinase HKDC1 (Homo sapiens, UniProt Q2TB90); experiment: activation of HKDC1 glucose phosphorylation – biochemical, W721R variant, dose response (AID 504730); assay type: functional
T5 sequence (Q2TB90 whole entry): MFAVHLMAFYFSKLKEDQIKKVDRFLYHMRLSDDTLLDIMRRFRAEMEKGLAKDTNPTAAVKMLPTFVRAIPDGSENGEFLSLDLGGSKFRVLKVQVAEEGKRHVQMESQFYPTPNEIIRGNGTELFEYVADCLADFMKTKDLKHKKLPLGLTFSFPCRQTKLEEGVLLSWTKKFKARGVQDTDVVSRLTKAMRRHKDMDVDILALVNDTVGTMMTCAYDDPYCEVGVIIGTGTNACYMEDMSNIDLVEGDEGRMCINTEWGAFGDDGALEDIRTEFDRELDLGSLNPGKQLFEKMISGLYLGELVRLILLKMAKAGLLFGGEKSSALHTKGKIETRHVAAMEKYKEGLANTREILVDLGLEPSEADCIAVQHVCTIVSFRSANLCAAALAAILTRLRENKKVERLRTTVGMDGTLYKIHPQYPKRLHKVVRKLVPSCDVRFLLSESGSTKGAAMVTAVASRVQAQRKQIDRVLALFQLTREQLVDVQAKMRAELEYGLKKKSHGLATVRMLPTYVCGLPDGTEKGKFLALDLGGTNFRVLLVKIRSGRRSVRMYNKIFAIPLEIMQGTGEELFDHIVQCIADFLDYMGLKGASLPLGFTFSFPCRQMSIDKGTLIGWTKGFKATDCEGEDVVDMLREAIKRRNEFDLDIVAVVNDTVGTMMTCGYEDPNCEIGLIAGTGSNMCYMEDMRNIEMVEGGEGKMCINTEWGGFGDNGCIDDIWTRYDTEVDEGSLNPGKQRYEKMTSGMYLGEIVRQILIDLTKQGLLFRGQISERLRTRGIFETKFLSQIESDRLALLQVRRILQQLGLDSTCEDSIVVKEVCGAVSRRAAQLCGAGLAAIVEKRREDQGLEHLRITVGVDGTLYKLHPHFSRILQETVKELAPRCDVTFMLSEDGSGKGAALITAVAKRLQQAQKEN

Hexokinase-1 = Hexokinase-1 (Homo sapiens, UniProt P19367); experiment: HK1 enzyme activation by HKDC1 hits – biochemical, selectivity assay for HKDC1 activator project, dose response (AID 504762); assay type: functional
[18] = molecular target: Glucose-6-phosphate 1-dehydrogenase (Homo sapiens, UniProt P11413); experiment: inhibition of Homo sapiens G6PD, dose series – biochemical, fluorescence, selectivity assay for P. falciparum G6PD inhibitor project, dose response (AID 504792); assay type: functional
Glucose-6-phosphate 1-dehydrogenase, sequence (P11413 whole entry): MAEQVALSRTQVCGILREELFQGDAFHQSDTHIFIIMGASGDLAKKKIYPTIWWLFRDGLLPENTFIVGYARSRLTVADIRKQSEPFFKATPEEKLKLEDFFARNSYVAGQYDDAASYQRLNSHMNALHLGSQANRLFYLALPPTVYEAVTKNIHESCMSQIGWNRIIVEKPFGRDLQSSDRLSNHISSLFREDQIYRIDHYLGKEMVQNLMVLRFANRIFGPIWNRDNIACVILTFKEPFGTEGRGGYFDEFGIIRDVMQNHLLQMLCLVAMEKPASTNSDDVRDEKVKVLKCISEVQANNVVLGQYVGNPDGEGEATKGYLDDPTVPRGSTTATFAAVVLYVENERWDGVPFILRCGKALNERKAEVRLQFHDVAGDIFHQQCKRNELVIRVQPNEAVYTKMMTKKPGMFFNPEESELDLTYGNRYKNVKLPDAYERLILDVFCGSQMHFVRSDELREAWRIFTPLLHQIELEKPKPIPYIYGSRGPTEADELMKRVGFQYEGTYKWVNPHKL

[19] = Luminescence Cell-Based Dose Retest to Confirm Inhibitors of Cancer Stem Cells. [Related pubchem assays (depositor defined):AID2717, AID2721]; assay type: functional; details: Homo sapiens
Beta-galactosidase = Beta-galactosidase (Escherichia coli, UniProt Q8VNN2); experiment: detection-enzyme interference by beta-gal modulators – biochemical, E. coli enzyme, set 3, artefact control for CCR6 antagonist project, dose response (AID 504712); assay type: functional
Beta-galactosidase, sequence (Q8VNN2 whole entry): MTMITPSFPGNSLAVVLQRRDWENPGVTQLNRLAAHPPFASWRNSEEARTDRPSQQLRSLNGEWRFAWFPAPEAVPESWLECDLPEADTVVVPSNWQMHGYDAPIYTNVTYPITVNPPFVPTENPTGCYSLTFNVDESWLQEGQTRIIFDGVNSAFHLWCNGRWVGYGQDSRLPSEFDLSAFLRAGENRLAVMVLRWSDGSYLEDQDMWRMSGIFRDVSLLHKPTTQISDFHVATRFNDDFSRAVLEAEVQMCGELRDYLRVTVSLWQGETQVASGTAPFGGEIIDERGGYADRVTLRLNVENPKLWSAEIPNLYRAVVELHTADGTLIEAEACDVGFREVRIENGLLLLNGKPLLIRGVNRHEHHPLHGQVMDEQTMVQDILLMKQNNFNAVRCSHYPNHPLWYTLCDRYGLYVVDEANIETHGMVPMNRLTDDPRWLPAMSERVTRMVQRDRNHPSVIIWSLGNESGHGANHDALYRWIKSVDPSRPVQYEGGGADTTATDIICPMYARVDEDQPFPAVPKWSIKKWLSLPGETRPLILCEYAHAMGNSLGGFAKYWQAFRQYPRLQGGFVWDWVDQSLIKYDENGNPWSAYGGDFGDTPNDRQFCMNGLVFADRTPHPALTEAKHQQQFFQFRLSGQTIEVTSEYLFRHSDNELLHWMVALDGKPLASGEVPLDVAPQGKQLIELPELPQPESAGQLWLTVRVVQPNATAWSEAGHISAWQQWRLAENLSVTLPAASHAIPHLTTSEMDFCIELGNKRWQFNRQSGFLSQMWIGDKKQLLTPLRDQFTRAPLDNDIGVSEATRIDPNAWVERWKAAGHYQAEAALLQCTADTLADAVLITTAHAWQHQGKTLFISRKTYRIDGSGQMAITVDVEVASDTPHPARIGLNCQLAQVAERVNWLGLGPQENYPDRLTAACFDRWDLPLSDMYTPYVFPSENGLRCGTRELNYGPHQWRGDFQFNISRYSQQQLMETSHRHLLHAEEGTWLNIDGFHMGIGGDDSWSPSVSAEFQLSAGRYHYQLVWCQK

[20] = molecular target: Heat shock protein HSP 90-alpha (Homo sapiens, UniProt P07900); assay type: functional, organism-based
[21] = reduction of Shn3 3'UTR-driven luciferase in osteoblasts – cell-based, Clone20 osteoblasts, firefly luciferase, cherry-picked, dose response (AID 624132); assay type: functional;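 also: firefly luciferase luminescence from reporter carrying the Shn3 3'UTR in osteoblasts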
[22] = loss of viability in HepG2 cells – cell-based, CellTiter-Glo, cherry-picked, cytotoxicity control for Shn3 inhibitor project, dose response (AID 624134); assay type: functional
[23] = non-specific 3'UTR reporter inhibition in Clone20-Shn3RL – cell-based, Renilla luciferase, cherry-picked, counter-screen for Shn3 inhibitor project, dose response (AID 624133); assay type: functional
[24] = Shn3 3'UTR reporter signal decrease – cell-based, Clone20 osteoblasts, firefly luciferase, cherry-pick, set 2, Schnurri-3 inhibitor project, dose response (AID 720490); assay type: functional;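 also: actives lower the luminescence signal as inhibitors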
[25] = EF1alpha-driven Renilla reporter with control 3'UTR suppression – Clone20-Shn3RL cells, dual-Glo, cherry-pick, set 2, counter-screen for Shn3 3'UTR targeting project, dose response (AID 720724); assay type: functional, cell-based; details: Dual-Go Shn3RL

Sc1nnc(Nc2ccccc2Cl)s1
IC50 [1]: > 50 µM (inactive) | IC50 (Phosphomannomutase 2): > 100 µM (inactive) | IC50 [2]: > 100 µM (inactive) | IC50 [3]: 54.8 µM (active)

COc1cccc(-c2nnc(NC(=O)c3ccc(S(=O)(=O)N(CC(C)C)CC(C)C)cc3)o2)c1
CC50 [4]: 0.996 µM (active) | CC50 [5]: 5.3 µM (active) | CC50 [6]: 2.37 µM (active) | IC50 (cells): 16.3 µM (active) | AC50 (HEK293): 8.51 µM (active) | IC50 (H9c2): > 79 µM (inactive)

CCn1c(Cn2nnc(-c3ccccc3)n2)nnc1SCc1ccc(Cl)c(Cl)c1
IC50 [7]: 2.8 µM (active)

O=C(/C=C/c1ccco1)Nc1ccc2nn(-c3ccccc3)nc2c1
IC50 [8]: > 100 µM (inactive) | IC50 [9]: > 100 µM (not active) | EC50 [10]: 4.11 µM (active) | EC50 [11]: 4.53 µM (active) | IC50 [12]: 5.43 µM (active)

CC1=C(C(=O)N2CCOCC2)C(c2ccccc2F)C2=C(O)CC(C)(C)CC2=N1 (stereo not drawn)
AC50 (CAAX prenyl protease 1): 14.6 µM (active)

Cc1ccnc(NS(=O)(=O)c2ccc(NC(=O)c3ccc([N+](=O)[O-])s3)cc2)n1
EC50 [13]: 0.967 µM (active) | EC50 [14]: > 60 µM (not active) | CC50 [4]: 10.2 µM (active) | CC50 [5]: > 20 µM (active) | CC50 [6]: > 20 µM (active) | IC50 (cells): 6.24 µM (active)

O=C(O)CCCNC(=O)c1cncc(Br)c1
IC50 [8]: > 100 µM (inactive) | IC50 [9]: > 100 µM (not active)

COc1ccc(C)cc1NC(=O)C12CCC(C)(C(=O)O1)C2(C)C (stereo not drawn)
EC50 (Troponin, cardiac muscle): > 71.5 µM (inactive)

Nc1nc2ccc(S(=O)(=O)N3CCCCC3)cc2s1
IC50 [7]: 13.9 µM (inactive) | IC50 (Large T antigen): 8.51 µM (active) | AC50 [15]: 3.3 µM (active) | IC50 [16]: > 66 µM (inactive) | IC50 [17]: > 66 µM (inactive)

Cc1cc(C2=NN=C(Nc3ccc(S(=O)(=O)N4CCOCC4)cc3)SC2)c(C)n1CC1CCCO1 (stereo not drawn)
EC50 (Hexokinase HKDC1): 31.2 µM (inactive) | EC50 (Hexokinase-1): 29.5 µM (inactive)

Cc1ccc(NC(=O)c2ccc(Cl)c(N3C(=O)C=CC3=O)c2)cc1
IC50 [18]: 48.8 µM (inactive) | AC50 [19]: 4.21 µM (active) | IC50 (Beta-galactosidase): > 66.6 µM (inactive) | IC50 [2]: 37.7 µM (active) | AC50 [20]: 3.64 µM (active) | AC50 [21]: 1.6 µM (active) | AC50 [22]: 55.1 µM (active) | AC50 [23]: 9.79 µM (active) | AC50 [24]: 5.17 µM (active) | AC50 [25]: 1.93 µM (active)

— ChEMBL document CHEMBL1201862, “PubChem BioAssay data set” (2004)
